Publication PMC5108082, “Pharmacokinetics, toxicity, and cytochrome P450 modulatory activity of plumbagin” (BMC Pharmacology & Toxicology, 2016)
“Also recorded” adds a separate entry of the source.

How the values were obtained:
[1] = acute toxicity test, single oral dose; format: in vivo, rat; conditions: both sexes, Wistar, rat, in vivo, rats, single oral dose
Experimental: (§1) Plumbagin was dissolved with 20 % Tween-80 to obtain the desired concentrations. Wistar rats were fasting 2 h before administration of a single oral dose of the plumbagin. Animals were divided into eight groups of six (3 males and 3 females for each group). For the acute toxicity test, rats in each group were fed with plumbagin at a single oral dose of 500, 250, or 150 mg/kg body weight (1 mL); control group received a single oral dose of 20 % Tween-80 (1 mL). For the subacute toxicity test, rats in each group were fed with plumbagin at a daily dose of 100, 50, or 25 mg/kg body weight (1 mL) for 28 days; control group received a daily oral dose of 20 % Tween-80 for 28 days (1 mL).
(§2) General behavioral changes of each rat was observed continuously for 1 h after each dose, intermittently every 4 h, and thereafter over a period of 24 h. […] At the end of the observation period, all animals were sacrificed under ether anesthesia (isoflurane) and vital organs (liver, lung, kidney, heart, and spleen) were removed from all animals for gross and histopathological examination. Blood sample was collected from each rat through cardiac puncture for analysis of plasma chemistry (heparin as an anticoagulant) and blood hematology (EDTA as an anticoagulant).

Wistar rats = assay: acute toxicity test, single oral dose; format: in vivo, rat
Experimental: as §1, §2

[2] = subacute toxicity test, daily oral dose for 28 days; format: in vivo, rat; conditions: both sexes, Wistar, rat, in vivo, rats, daily oral doses for 28 days
Experimental: as §1, §2

CYP1A2 = CYP1A2 activity (phenacetin O-deethylation) in liver microsomes of treated mice; format: in vivo, mouse; conditions: for modulation of CYP1A2 activity (paracetamol produced): mice, 25, 12.5, 6.25 mg/kg daily oral for 28 days vs control
Experimental: Mice were divided into four groups (3 male mice each). Mice in the treated groups were fed with plumbagin at a daily oral dose of 25, 12.5, or 6.25 mg/kg body weight (1 mL) for 28 days. The control group received a daily oral dose (1 mL) of 20 % Tween-80 for 28 days. At the end of the experiment period, all animals were sacrificed under ether anesthesia and livers were removed for investigation of the modulatory effect of plumbagin on hepatic CYP1A2 and CYP3A11.
The liver samples were rinsed with ice-cold, 0.9 %NaCl, homogenized in 50 mM sodium phosphate buffer (pH 7.4) containing 0.1 mM EDTA, and centrifuged at 9000 × g for 20 min. The supernatant was ultracentrifuged at 105,000 × g for 60 min, and the resulting microsomal pellets were suspended with ice cold 1.15 % KCl solution and ultracentrifuged at 105,000 × g for 60 min. The pellets were homogenized with 50 mM potassium phosphate (pH 7.4) containing 0.1 mM EDTA and 10 % glycerol. Protein concentrations were determined by Bradford protein assay and the suspended microsomes were aliquoted and stored at −80 °C until use.
Phenacetin O-deethylation and nifedipine oxidation were used as selective markers for CYP1A2 and CYP3A11 activities, respectively. The substrate concentration equivalent to the apparent Km (Michaelis-Menten constant) of each individual CYP450 was used in the experiment. Final concentration of organic solvent in the incubation mixture was less than 1 %. The incubation conditions for determination enzyme activity to both CYP450 isoforms were according to the previously described methods.
The incubation mixture of 500 μL containing the selective substrate (20 μM phenacetin and 40 μm nifedipine for CYP1A2 and CYP3A11, respectively), mice liver microsomes (in 100 mM phosphate buffer pH 7.4) was pre-incubated at 37 °C for 5 min in a shaking water bath. […] Concentrations of paracetamol (metabolite of CYP1A2) and oxidized nifedipine (metabolite of CYP3A11) in the incubation mixtures were determined using HPLC with UV detection. […]

[3] = tested on: K1 chloroquine-resistant P. falciparum; conditions: K1 clone; read-out: median IC50; cited from earlier work
parasitemia = tested on: parasitemia; design: method as in PMID 24410949; conditions: 25 mg/kg body weight given for 4 days; cited from earlier work
[4] = rat, in vivo, cited from earlier work
mice = conditions: cited from earlier work
[5] = tested on: platelet adhesion and coagulation; conditions: rats, daily doses of 2 mg/kg body weight; plumbagin as a component of Plumbago zeylanica; cited from earlier work
[6] = single oral dose 150 mg/kg body weight, 14 days observation

CC1=CC(=O)c2c(O)cccc2C1=O [plumbagin, 5-hydroxy-2-methyl-1,4-naphthoquinone]
LD50 at 14 days ([1]; read-out: 50 % lethal dose (LD50), acute toxicity): 250 mg/kg
MTD at 14 days ([1]; read-out: maximum tolerated dose, acute toxicity): 150 mg/kg
gender-specific toxicity (Wistar rats; all dose levels): No gender-specific toxicity was observed
histopathological examination (liver, kidney, heart, spleen, lung) (Wistar rats; all dose levels (150, 250, 500 mg/kg)): no significant change in size and morphology
signs of toxicity, water and food consumption, body weight (Wistar rats; [6]): no visible sign of toxicity
survival (Wistar rats; [6]): All rats survived
animals died (Wistar rats; single oral dose 250 mg/kg body weight): 3/6
animals died (Wistar rats; single oral dose 500 mg/kg body weight): 6/6
signs of toxicity (Wistar rats; single oral dose 250 and 500 mg/kg body weight): toxic signs and symptoms including anxiety, salivation, exhibited chewing, and agitation
LD50 at 28 days ([2]; read-out: 50 % lethal dose (LD50), subacute toxicity): 50 to 100 mg/kg
MTD at 28 days ([2]; read-out: maximum tolerated dose, subacute toxicity): 25 mg/kg
modulation of CYP1A2 activity (paracetamol produced) (CYP1A2): no significant change; also recorded: not found to induce or inhibit
modulation of CYP1A2 activity (paracetamol produced) (CYP1A2; listed as Plumbagin): did not significantly modulate
trend of CYP1A2 activity (CYP1A2; particularly at the lowest dose level of 6.25 mg/kg body weight): tended to be reduced
IC50 [3]: 370 nM
antimalarial activity in vivo (reduction of parasitemia, prolongation of survival time) (parasitemia): weak
oral bioavailability ([4]; po): 39%
elimination half-life (t1/2), mean [4]: 17 h
mean residence time (MRT), mean [4]: 22 h
time to reach maximum blood concentration (tmax) [4]: 2.5 h
maximal tolerated dose, subacute toxicity testing (mice; mice, for 14 days, ref our previous study): 25 mg/kg body weight
types of toxicity reported (mice; mice): diarrhea, skin rashes, leukocytosis, increased serum phosphatase levels
maximal tolerated dose, acute toxicity testing (mice; mice, ref our previous study): 100 mg/kg body weight
hepatotoxicity (mice; mouse, in vivo): marked increased plasma ALT and AST levels
platelet adhesion and coagulation [5]: significantly decreased
